Source: article PMC8213057, “Targeting ALK2: An Open Science Approach to Developing Therapeutics for the Treatment of Diffuse Intrinsic Pontine Glioma” (Journal of Medicinal Chemistry, 2020)

Tests used:
WEE1 = WEE1 (Homo sapiens, UniProt P30291); experiment: biochemical; conditions: read-out: % enzyme activity, 1 μM; Run 1, Run 2
PAK5 = PAK5 (Homo sapiens, UniProt Q9P286); conditions: 1 μM; Run 1, Run 2
MAK = molecular target: T1, MAK (Homo sapiens, UniProt P20794); experiment: biochemical; conditions: read-out: % enzyme activity, 1 μM; Run 1, Run 2
T1 sequence (P20794 1-623): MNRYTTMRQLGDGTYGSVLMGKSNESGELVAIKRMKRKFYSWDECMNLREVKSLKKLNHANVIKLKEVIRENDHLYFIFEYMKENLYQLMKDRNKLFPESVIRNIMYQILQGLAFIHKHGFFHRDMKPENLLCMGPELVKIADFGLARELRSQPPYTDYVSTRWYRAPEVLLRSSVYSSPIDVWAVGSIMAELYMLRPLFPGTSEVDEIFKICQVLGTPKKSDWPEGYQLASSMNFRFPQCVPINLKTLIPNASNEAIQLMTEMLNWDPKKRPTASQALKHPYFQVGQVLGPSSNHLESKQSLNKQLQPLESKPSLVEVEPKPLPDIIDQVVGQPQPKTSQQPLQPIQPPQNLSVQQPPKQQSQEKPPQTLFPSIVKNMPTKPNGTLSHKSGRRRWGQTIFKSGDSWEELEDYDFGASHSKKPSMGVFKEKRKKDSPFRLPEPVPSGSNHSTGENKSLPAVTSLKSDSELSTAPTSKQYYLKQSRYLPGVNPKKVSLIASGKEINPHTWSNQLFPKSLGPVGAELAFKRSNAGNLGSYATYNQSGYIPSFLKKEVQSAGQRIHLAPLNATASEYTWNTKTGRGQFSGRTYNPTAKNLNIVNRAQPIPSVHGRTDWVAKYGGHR

TSSK3/STK22C = molecular target: T2, TSSK3/STK22C (Homo sapiens, UniProt Q96PN8); experiment: biochemical; conditions: read-out: % enzyme activity, 1 μM; Run 1, Run 2
T2 sequence (Q96PN8 1-268): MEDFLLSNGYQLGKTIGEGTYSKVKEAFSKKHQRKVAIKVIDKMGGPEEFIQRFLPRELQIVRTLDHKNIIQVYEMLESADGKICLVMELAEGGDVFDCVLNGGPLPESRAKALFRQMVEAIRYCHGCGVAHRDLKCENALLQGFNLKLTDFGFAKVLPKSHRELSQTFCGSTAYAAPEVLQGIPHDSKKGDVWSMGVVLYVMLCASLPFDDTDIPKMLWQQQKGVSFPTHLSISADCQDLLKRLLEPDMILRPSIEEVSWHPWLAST

CDK1/cyclin E = CDK1/cyclin E (Homo sapiens, UniProt P06493); experiment: biochemical; conditions: read-out: % enzyme activity, 1 μM; Run 1, Run 2
Sequence of CDK1/cyclin E (P24864 whole entry): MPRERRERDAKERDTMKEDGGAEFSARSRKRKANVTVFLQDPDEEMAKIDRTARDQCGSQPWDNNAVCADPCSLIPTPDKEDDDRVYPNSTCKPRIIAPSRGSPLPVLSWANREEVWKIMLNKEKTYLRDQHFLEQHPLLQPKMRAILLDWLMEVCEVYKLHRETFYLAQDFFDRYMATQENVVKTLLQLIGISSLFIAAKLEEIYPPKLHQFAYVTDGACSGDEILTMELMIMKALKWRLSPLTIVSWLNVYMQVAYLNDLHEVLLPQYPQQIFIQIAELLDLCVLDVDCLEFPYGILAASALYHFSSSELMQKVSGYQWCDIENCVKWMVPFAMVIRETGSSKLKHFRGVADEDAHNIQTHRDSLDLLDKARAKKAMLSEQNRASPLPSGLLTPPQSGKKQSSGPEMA
Sequence of CDK1/cyclin E (P06493 whole entry): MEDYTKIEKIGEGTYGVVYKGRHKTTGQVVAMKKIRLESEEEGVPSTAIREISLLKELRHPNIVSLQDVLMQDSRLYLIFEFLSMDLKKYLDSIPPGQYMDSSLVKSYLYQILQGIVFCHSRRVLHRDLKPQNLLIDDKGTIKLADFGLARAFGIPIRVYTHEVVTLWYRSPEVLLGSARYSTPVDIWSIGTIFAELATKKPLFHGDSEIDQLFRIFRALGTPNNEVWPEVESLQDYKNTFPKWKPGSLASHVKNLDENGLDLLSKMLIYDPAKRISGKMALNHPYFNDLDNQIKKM

RSK1 = RSK1 (Homo sapiens, UniProt Q15418); conditions: 1 μM; Run 1, Run 2
Sequence of RSK1 (Q15418 whole entry): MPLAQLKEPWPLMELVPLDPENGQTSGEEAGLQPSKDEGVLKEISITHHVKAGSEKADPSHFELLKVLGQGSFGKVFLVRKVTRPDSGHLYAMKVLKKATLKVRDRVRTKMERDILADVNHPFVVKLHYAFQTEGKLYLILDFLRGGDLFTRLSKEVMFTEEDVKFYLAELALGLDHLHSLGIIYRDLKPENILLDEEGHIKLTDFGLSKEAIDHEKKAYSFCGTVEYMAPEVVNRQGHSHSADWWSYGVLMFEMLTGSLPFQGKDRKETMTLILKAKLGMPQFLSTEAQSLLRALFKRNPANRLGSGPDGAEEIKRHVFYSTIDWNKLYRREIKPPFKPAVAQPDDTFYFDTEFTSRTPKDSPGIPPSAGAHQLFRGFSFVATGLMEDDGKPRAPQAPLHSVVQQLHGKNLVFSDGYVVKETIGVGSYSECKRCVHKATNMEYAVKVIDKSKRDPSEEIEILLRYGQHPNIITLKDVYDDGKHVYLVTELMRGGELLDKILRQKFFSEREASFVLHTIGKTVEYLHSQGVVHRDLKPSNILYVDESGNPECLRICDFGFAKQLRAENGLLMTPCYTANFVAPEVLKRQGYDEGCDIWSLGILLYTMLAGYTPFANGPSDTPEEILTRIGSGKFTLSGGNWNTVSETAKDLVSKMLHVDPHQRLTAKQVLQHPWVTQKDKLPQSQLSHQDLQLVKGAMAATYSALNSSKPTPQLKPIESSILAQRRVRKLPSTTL

PRKX = molecular target: T3, PRKX (Homo sapiens, UniProt P51817); experiment: biochemical; conditions: read-out: % enzyme activity, 1 μM; Run 1, Run 2
T3 sequence (P51817 1-358): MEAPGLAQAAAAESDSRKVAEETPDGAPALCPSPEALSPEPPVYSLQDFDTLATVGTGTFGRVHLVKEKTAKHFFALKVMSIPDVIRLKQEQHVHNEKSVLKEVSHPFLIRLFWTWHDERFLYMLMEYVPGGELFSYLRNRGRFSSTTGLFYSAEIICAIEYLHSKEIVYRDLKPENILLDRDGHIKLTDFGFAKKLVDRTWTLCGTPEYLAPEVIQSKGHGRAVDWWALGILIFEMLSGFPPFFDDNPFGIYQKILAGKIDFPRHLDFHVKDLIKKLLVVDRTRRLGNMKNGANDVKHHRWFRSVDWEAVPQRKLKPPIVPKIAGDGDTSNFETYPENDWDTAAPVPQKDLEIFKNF

ZAP70 = molecular target: T4, ZAP70 (Homo sapiens, UniProt P43403); conditions: 1 μM; Run 1, Run 2
T4 sequence (P43403 1-619): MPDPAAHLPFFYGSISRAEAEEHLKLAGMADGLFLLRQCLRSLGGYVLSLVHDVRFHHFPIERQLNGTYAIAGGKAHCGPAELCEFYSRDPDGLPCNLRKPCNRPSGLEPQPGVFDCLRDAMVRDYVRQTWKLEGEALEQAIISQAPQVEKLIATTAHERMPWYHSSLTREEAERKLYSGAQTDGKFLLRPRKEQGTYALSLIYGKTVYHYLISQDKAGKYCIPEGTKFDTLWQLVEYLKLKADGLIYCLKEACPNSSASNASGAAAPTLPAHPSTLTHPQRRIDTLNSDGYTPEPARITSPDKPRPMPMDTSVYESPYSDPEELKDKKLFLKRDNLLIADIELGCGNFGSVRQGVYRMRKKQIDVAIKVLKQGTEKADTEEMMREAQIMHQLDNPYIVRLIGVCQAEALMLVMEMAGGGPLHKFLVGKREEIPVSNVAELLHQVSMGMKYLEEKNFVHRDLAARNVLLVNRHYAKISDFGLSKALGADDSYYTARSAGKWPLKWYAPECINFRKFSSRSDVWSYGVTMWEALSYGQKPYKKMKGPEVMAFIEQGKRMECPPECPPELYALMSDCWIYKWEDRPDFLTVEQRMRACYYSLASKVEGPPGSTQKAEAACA

Sequence of PAK5 (Q9P286 whole entry): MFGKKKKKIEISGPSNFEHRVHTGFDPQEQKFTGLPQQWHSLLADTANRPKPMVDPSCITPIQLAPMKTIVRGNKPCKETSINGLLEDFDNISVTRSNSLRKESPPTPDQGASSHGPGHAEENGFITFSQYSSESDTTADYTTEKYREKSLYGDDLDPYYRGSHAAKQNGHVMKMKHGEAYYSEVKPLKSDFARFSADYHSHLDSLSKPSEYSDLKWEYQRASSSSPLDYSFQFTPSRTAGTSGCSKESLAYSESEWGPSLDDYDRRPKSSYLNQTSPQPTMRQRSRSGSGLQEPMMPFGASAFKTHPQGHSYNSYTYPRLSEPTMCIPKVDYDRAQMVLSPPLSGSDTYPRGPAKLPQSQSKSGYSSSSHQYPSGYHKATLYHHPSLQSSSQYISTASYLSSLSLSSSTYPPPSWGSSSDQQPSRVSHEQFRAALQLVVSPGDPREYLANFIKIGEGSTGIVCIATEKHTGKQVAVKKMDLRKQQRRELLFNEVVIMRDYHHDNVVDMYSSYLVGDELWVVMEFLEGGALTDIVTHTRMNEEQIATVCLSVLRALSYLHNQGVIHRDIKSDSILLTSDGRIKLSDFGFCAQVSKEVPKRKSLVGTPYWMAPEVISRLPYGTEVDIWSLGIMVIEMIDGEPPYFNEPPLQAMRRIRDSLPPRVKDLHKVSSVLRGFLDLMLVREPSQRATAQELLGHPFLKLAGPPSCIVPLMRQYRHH
Sequence of WEE1 (P30291 whole entry, species assumed): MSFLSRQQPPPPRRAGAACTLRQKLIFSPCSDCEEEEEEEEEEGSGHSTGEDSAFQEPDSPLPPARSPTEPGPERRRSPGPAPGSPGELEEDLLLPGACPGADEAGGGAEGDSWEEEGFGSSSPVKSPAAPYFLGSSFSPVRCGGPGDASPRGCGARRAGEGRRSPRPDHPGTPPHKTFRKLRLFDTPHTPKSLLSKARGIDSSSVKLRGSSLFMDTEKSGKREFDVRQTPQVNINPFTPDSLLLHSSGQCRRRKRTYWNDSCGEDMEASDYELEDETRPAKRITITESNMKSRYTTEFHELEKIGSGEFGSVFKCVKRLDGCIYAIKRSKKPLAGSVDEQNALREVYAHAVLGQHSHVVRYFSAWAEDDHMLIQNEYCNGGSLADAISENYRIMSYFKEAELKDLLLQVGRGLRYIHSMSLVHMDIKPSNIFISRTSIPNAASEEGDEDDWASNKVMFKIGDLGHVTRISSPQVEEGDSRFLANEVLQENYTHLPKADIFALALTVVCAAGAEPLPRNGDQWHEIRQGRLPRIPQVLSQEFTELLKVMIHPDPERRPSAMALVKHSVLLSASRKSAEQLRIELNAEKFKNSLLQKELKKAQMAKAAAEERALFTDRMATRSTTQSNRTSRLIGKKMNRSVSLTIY

Structure (SMILES) | remaining activity at 1 µM (WEE1) [%] | % enzyme activity (PAK5) [%] | remaining activity at 1 µM (MAK) [%] | remaining activity at 1 µM (TSSK3/STK22C) [%] | remaining activity at 1 µM (CDK1/cyclin E) [%] | % enzyme activity (RSK1) [%] | remaining activity at 1 µM (PRKX) [%] | % enzyme activity (ZAP70) [%]
COc1cc(-c2cncc(-c3ccc(N4C[C@@H](C)N(C)[C@@H](C)C4)cc3)c2C)cc(F)c1C(N)=O [Compound 26c, 2-Fluoro-6-methoxy-4-(4-methyl-5-(4-((3R,5S)-3,4,5-trimethylpiperazin-1-yl)phenyl)pyridin-3-yl)benzamide] | 105 | 94.99 | 119 | 96.6 | 92.4 | 101.00 | 91.3 | 98.47
COc1cc(-c2cncc(-c3ccc(N4CCN(C)CC4)cc3)c2C)cc(F)c1C(N)=O [Compound 26a, 2-Fluoro-6-methoxy-4-(4-methyl-5-(4-(4-methylpiperazin-1-yl)phenyl)pyridin-3-yl)benzamide] | 105 | 92.74 | 99.2 | 96.6 | 98.3 | 97.99 | 99.9 | 94.79
